Assay results: ChEMBL document CHEMBL1649214, “Antimalarial activity of tigecycline, a novel glycylcycline antibiotic” (Antimicrob Agents Chemother, 2009)
pIC50: −log10 of the molar value.

Legend:
[1] = tested on: Plasmodium falciparum; assay: Ratio of IC50 for Plasmodium falciparum isolates after 72 hrs to IC50 for Plasmodium falciparum isolates after 24 hrs by ELISA based histidine-rich protein 2 in vitro drug susceptibility assay; type: functional
[2] = tested on: Plasmodium falciparum; assay: Antimalarial activity against Plasmodium falciparum isolates assessed as parasite growth inhibition after 72 hrs by ELISA based histidine-rich protein 2 in vitro drug susceptibility assay; type: functional, organism-based

| SMILES | Ratio IC50 [1] | pIC50 [2] | IC90 [2] | IC99 [2] |
| --- | --- | --- | --- | --- |
| C[C@H]1c2cccc(O)c2C(=O)C2=C(O)[C@]3(O)C(=O)C(C(N)=O)=C(O)[C@@H](N(C)C)[C@@H]3[C@@H](O)[C@@H]21.O [DOXYCYCLINE] | 13 | 5.37 | 19.4 µM | 27.2 µM |
| C=C[C@H]1CN2CC[C@H]1C[C@H]2[C@H](O)c1ccnc2ccc(OC)cc12 [QUININE] | – | 6.98 | 0.441 µM | 0.673 µM |
| CC[C@H]1OC(=O)[C@H](C)[C@@H](O[C@H]2C[C@@](C)(OC)[C@@H](O)[C@H](C)O2)[C@H](C)[C@@H](O[C@@H]2O[C@H](C)C[C@H](N(C)C)[C@H]2O)[C@](C)(O)C[C@@H](C)CN(C)[C@H](C)[C@@H](O)[C@]1(C)O [AZITHROMYCIN] | – | 5.37 | 18.4 µM | 26.7 µM |
| CN(C)c1cc(NC(=O)CNC(C)(C)C)c(O)c2c1C[C@H]1C[C@H]3[C@H](N(C)C)C(O)=C(C(N)=O)C(=O)[C@@]3(O)C(O)=C1C2=O [TIGECYCLINE] | 49 | 6.16 | 5.91 µM | 12.4 µM |
| OC(c1cc(C(F)(F)F)nc2c(C(F)(F)F)cccc12)C1CCCCN1 (configuration not stated) [MEFLOQUINE] | – | 7.84 | 0.064 µM | 0.106 µM |
| C[C@H]1[C@@H](O)O[C@@H]2O[C@@]3(C)CC[C@H]4[C@H](C)CC[C@@H]1[C@@]24OO3 [ARTENIMOL] | – | 9.11 | 0.00276 µM | 0.004 µM |
| CCN(CC)CCCC(C)Nc1ccnc2cc(Cl)ccc12 (configuration not stated) [CHLOROQUINE] | – | – | 0.303 µM | 0.436 µM |
